Entries after “also recorded” stand apart in the source; their conditions may differ. Each block holds one molecule with its values, some of them ahead of it.
Assays:
human IL-1β-induced IL-6 = experiment: Cytokine biomarker assay: human IL-1β-induced serum IL-6 in mice; type: in vivo; details: 0.2 mg/kg antibody intravenously, human IL-1β 240 ng/mouse intraperitoneally, male C57BL/6 mice
Protocol: FIG. 5 illustrates cytokine biomarker assay. (A) The concentration of injected IgG1 at different time courses to compare the stability of IgG in male C57BL/6 mouse serum. […] Then, the mice were injected intraperitoneally with human IL-1β (240 ng/200 μL/mouse). Two hours after the injection, the mice were restrained, and blood was collected to detect the serum IL-6 level in the mice. IgG26AW treatment can inhibit the 40% induction of IL-6, which responds to human IL-1β boosting.
Then, the mice were injected intraperitoneally with recombinant human IL-1β (R&D systems) 240 ng/200 μL/mouse; then, 2.5 hours after the injection (peak IL-6 response time), the mice were restrained, and blood was collected via a facial vein with a lancet. Serum mouse IL-6 levels were measured using a Quantikine ELISA Kit (R&D System) according to the manufacturer's protocol.
To determine whether various rodent and primate disease models could be used to test the in vivo efficacy of IgG26AW, the ability of IgG26AW to bind a number of species orthologs of IL-1β was measured by SPR. […] This affinity is not sufficient to test IgG26AW efficacy in mouse disease models. […] Moreover, concentrations of IgGs after the injection in the serum were evaluated in different time courses.

[1] = molecular target: recombinant human IL-1β (R&D systems) (human) (UniProt P01584)
[2] = molecular target: recombinant human IL-1β (117-269 amino acids, without the pro-peptide region) (human) (UniProt P01584)
[3] = test system: IL-1β-induced NF-κB signaling in HEK-blue IL-1β cells; experiment: In vitro IL-1β neutralization assay in HEK-blue IL-1β reporter cells (SEAP); type: cell-based, human
Description: FIG. 1 illustrates inhibitory effect on IL-1β-induced NF-κB signaling of different selected IgGs from generic human phage-display libraries in HEK-blue IL-1β cells. (A) IL-1β bound to its receptor IL-1RI and its receptor accessory protein IL-1RAcP to form the IL-1β/IL-1RI/IL-1RAcP ternary complex. IL-1β induces downstream signaling pathways, including NF-κB activation (IκB degradation) and AP-1 activation (phosphorylation of JNK, p38 and ERK). (B) Ten IgGs bound to human IL-1β were selected from the generic human phage-display library.
FIG. 4 illustrates the comparison of IL-1β neutralizing abilities in different IL-1β-neutralizing antibodies. IL-1β was diluted from 1500 to 0 pM. Each antibody was added at a 5 nM concentration with different concentrations of IL-1β. HEK-blue-IL-1β cells were used to detect the IgG inhibitory effects of IL-1β signaling. The binding curve was fitted by a nonlinear regression curve to obtain the IC50.
FIG. 8 illustrates binding affinities and inhibitory effects of IgG variants selected from optimized IgG26 phage-display libraries. […] (B) Inhibitory effects on IL-1β-mediated downstream signaling were examined in 30 pM IL-1β-stimulated HEK-blue reporter cells. […]
After 16 hours, the inhibitory effect of IL-1β-induced signaling was monitored by SEAP assay. […]

Molecule: canakinumab: marketed anti-IL-1β antibody (Novartis), synthesized from patent US20090232803
inhibition of human IL-1β-induced systemic (serum) IL-6 (human IL-1β-induced IL-6): 47%

human IL-1β-induced systemic IL-6 expression in C57BL/6 mice (serum mouse IL-6, ELISA) [1]: 47%
IL-1β concentration whose NF-κB signal is half inhibited by 5 nM antibody (HEK-blue IL-1β cells, SEAP assay; called IC50 in the legend) [2]: 0.925 nM
Molecule: canakinumab (antibody)

Molecule: O=C(OC[C@H]1O[C@@H](OC(=O)c2cc(O)c(O)c(O)c2)[C@H](OC(=O)c2cc(O)c(O)c(O)c2)[C@@H](OC(=O)c2cc(O)c(O)c(O)c2)[C@@H]1OC(=O)c1cc(O)c(O)c(O)c1)c1cc(O)c(O)c(O)c1 [PGG, 1,2,3,4,6-Penta-O-Galloyl-β-D-Glucose]
NF-κB signaling inhibition of low dose IgG26AW combined with PGG ([3]; 69 pM IgG26AW combined with 50 μM PGG, IL-1β 588 to 0 pM (FIG. 14)): efficiently inhibits the NF-κB signaling as similar as 690 pM IgG26AW can do
effect of PGG cotreatment with IgG26AW on IL-1β induced NF-κB signaling ([3]; 75 pM IL-1β, IgG26AW 69 nM to 0 nM, PGG 30 μM or 50 μM (FIG. 13)): synergistically reduce NF-kB signaling; also recorded: dose-dependent inhibitory effect on NF-κB signaling

Source: patent publication US20230220065A1, “ANTIBODIES TO INTERLEUKIN-1BETA AND USES THEREOF” (ACADEMIA SINICA, priority 2020, published 2023)
